Results as given in patent publication US9416115B2, “Fused heterocyclic compounds as ion channel modulators” (Gilead Sciences, Inc., priority 2013, dated 2016).
Read-outs that look alike come from different tables or passages of the source.

Experiments:
[1] = biological target: wild-type human cardiac sodium channel, hNav1.5 (Homo sapiens, UniProt Q14524); test: Peak INa screening assay (tonic block and use-dependent block); format: cell-based
Experimental: The cardiac late sodium current (Late INa) and peak sodium current (Peak INa) assays are performed on an automated electrophysiology platform, QPatch 16X or QPatch HT (Sophion Bioscience, Copenhagen, Denmark) using the whole cell patch clamp technique to measure currents through the cell membrane. The assay uses an HEK293 (human embryonic kidney) cell line heterologously expressing the wild-type human cardiac sodium channel, hNav1.5, purchased from Millipore (Billerica, Mass.). No beta subunits were coexpressed with the Na channel alpha subunit. Cells are maintained with standard tissue culture procedures and stable channel expression is maintained with 400 μg/mL Geneticin in the culture medium. Experiments are carried out at 23-25° C.
For both the Late INa and Peak INa assays, series resistance compensation is set to 100% and series resistance and whole-cell compensation are performed automatically. Currents are digitized at 25 kHz and low-pass filtered at 5 kHz and stored in the Sophion Bioscience Oracle database (Sophion Bioscience, Copenhagen, Denmark). Analysis is performed using QPatch Assay software and data are compiled in Excel 2010 (Microsoft, Seattle, Wash., U.S.A.).
Compound stocks are routinely made by the Gilead Sample Bank in vials to 10 mM in dimethyl sulfoxide (DMSO). In some cases, when compounds are not soluble in DMSO, they are made in 100% ethanol. Stocks are sonicated as necessary. The extracellular solution for screening Late INa is composed of: 140 mM NaCl, 4 mM KCl, 1.8 mM CaCl2, 1 mM MgCl2, 10 mM HEPES and 10 mM Dextrose with pH adjusted to 7.35 using NaOH. The intracellular solution contains: 105 mM CsF, 20 mM CsCl, 10NaF, 2 mM EGTA, 10 mM HEPES and 10 mM Dextrose with pH adjusted to 7.35 with CsOH. Compounds are diluted in extracellular solution using a MicroLab Nimbus (Hamilton Robotics, Reno, Nev.) to between 0.3 and 3 μM in glass vials and transferred to glass well plates before robotic addition to the cells. The 0 mM Na extracellular solution (0Na-ECF) used at the end of each experiment for the Late INa and Peak INa assays to measure baseline current contains: 140 Choline-Cl; 4 mM KCl, 1.8 mM CaCl2; 1 mM MgCl2; 10 mM HEPES and 10 mM Dextrose with pH was adjusted to 7.35 with CsOH.
Compounds were evaluated for their effect Nav1.5 Peak INa. It is contemplated that the compounds of Formula I avoid significant block of peak INa. Since the peak INa in the cells used herein can be very large, introducing artifacts in the recording, the concentration of Na^+ in the bath can be reduced to 40 mM by isosmotic replacement of Na^+ with Choline (see below).
Tonic Block (TB) of Peak INa was measured using a voltage step to −20 mV from a holding potential of −100 mV at a low stimulation frequency of 0.1 Hz. Use-Dependent Block (UDB) of Peak INa was measured during pulse number 50 of a pulse train (−20 mV, 20 ms, 50 pulses, 3 Hz) from a holding potential of −100 mV.
The extracellular solution for screening Peak INa is composed of: 40 mM NaCl, 100 mM Choline-Cl, 4 mM KCl, 1.8 mM CaCl2, 1 mM MgCl2 10 mM HEPES and 10 mM Dextrose with pH adjusted to 7.35 using NaOH. The intracellular solution used for the Peak INa assay is the same as outlined for the Late INa assay (see above).
After establishing the whole cell recording configuration, channels were stimulated to open with low frequency (0.1 Hz) so that the recording can be monitored and the extent to which the recording has stabilized can be assessed.
The test compound is then applied at 1 or 3 μM and was added 2 times at 60 second intervals. After the second compound addition, a 200 second wait period was imposed to allow for equilibration. Voltage protocols for TB and UDB are were performed in the absence and presence of compound and TB and UDB are calculated with respect to the compound free condition. Both TB and UDB were analyzed by incorporating rundown correction for the peak INa.

[2] = biological target: hNav1.1 (SCN1A) (Homo sapiens, UniProt P35498); test: Use-dependent inhibition of the CNS Nav1.1 sodium channel; format: cell-based; conditions: use-dependent block, 25 Hz, pulse 20, read-out: Nav1.1 UDB 25 Hz 10 uM
Experimental: HEK-293 cells stably expressing wild-type (WT) hNav1.1 (SCN1A, NCBI# AB09354) were obtained from Millipore (Cat. # CYL3009) were used to record INa. Cells are maintained with standard tissue culture procedures and stable channel expression is maintained with 400 ug/mL G418 in the culture medium. Unless otherwise noted, all reagents are purchased from Sigma-Aldrich (St Louis, Mo., U.S.A.).
Assays measuring Use-Dependent Block (UDB) of Nav1.2 are performed on an automated electrophysiology platform, QPatch 16X or QPatch HT (Sophion Bioscience, Copenhagen, Denmark), using the whole cell patch clamp technique to measure currents through the cell membrane. Series resistance compensation is set to 100% and series resistance and whole-cell compensation are performed automatically. Currents stored in the Sophion Bioscience Oracle database (Sophion Bioscience, Copenhagen, Denmark). Analysis is performed using QPatch Assay software and data are compiled in Excel 2010 (Microsoft, Seattle, Wash., U.S.A.).
The internal (pipette) solution consists of (in mM) 105 CsF, 10 NaF, 20 CsCl, 2 EGTA, 10 HEPES, 10 Dextrose with a pH of 7.35 and osmolarity of 300 mOsmol/kg. The external (bath) solution contains in (mM): 145 NaCl, 4 KCl, 1.8 CaCl2, 1 MgCl2, 10 dextrose, 10 HEPES, with a pH of 7.35 and osmolarity of 310 mOsmol/kg. Experiments are carried out at 23-25° C.
Compound stocks are routinely made by the Gilead Sample Bank in vials to 10 mM in dimethyl sulfoxide (DMSO). In some cases, when compounds are not soluble in DMSO, they are made in 100% ethanol. Stocks are sonicated as necessary. […]
Cells are allowed to stabilize for 10 min after establishment of the whole-cell configuration before current is measured. The test compound is applied 2 times at 60 second intervals. After the second compound addition, a 200 second wait period was imposed to allow for equilibration. Leak currents are subtracted by using an online P/4 procedure and all currents are low-pass Bessel filtered at 5 kHz and digitized at […].
Use-dependent block of Nav1.2 peak current is measured during pulse number 20 of a voltage pulse train (0 mV, 20 ms, 20 pulses, 25 Hz) from a holding potential of −120 mV. Currents are normalized to the peak current recorded in response to the first pulse in each frequency train. The voltage protocol for UDB was performed in the absence and presence of compound and percentage inhibition was calculated with respect to the compound free condition. Results are presented as mean percentage inhibition and data analysis is performed using QPatch Assay Software 4.0, and Excel 2002 (Microsoft, Seattle, Wash., U.S.A.).

[3] = tonic block of Peak INa, 0.1 Hz, holding -100 mV, read-out: Peak TB 3 uM
[4] = use-dependent block of Peak INa, 3 Hz, pulse 50, read-out: Peak UDB 3 Hz 3 uM

Chain of wild-type human cardiac sodium channel, hNav1.5 (Q14524 whole entry): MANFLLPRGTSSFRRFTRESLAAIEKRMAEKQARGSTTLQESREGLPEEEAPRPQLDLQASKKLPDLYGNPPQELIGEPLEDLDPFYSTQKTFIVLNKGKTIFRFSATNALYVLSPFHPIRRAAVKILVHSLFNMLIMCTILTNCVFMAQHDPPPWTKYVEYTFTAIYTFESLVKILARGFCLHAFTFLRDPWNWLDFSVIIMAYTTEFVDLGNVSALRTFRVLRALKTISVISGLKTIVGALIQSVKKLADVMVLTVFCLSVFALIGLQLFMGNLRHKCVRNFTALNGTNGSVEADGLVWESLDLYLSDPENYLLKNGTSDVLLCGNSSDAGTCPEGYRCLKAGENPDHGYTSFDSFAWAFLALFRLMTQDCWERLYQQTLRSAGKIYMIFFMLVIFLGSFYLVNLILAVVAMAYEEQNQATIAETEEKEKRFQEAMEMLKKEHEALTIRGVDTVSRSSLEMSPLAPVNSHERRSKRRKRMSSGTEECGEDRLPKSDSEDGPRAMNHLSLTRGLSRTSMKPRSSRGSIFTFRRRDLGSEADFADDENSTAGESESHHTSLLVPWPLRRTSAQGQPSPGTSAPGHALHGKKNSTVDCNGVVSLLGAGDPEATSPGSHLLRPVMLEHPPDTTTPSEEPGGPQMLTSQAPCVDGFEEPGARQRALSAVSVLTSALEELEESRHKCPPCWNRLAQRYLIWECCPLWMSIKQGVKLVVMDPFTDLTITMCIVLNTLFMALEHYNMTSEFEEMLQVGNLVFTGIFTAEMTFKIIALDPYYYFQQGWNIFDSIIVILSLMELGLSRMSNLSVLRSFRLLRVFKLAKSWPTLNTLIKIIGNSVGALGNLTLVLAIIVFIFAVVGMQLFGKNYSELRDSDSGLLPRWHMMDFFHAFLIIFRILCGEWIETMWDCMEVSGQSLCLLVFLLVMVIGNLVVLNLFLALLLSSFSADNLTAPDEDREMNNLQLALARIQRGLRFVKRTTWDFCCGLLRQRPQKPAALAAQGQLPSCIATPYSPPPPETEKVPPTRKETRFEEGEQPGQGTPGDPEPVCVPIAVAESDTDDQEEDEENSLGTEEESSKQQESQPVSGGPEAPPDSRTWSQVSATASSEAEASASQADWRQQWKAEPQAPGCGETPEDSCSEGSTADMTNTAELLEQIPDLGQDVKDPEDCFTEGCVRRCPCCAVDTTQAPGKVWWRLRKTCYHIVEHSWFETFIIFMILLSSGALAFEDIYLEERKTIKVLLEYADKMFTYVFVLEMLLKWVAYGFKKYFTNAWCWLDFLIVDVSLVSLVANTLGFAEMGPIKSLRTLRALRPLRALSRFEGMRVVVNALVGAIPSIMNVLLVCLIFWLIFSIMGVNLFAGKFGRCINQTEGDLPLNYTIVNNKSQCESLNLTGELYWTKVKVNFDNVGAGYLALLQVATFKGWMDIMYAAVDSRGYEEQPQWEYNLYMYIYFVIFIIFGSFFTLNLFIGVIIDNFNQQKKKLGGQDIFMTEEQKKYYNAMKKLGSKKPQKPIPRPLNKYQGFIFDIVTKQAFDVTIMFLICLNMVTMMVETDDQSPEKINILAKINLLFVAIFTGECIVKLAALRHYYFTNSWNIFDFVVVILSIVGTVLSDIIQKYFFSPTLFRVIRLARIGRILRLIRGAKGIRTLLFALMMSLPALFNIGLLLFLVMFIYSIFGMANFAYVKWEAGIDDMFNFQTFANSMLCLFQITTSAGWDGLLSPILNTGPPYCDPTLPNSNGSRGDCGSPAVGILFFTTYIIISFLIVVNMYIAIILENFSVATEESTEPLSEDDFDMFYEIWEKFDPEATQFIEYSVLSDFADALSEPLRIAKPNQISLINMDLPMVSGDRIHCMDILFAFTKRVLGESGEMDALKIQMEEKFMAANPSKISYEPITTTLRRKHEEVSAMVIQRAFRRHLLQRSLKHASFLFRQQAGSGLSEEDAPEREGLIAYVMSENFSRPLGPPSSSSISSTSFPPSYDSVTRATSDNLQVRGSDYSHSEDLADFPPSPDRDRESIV

Structure (SMILES): Cc1ccnc(COc2noc3ccc(-c4ccc(OC(F)(F)F)cc4)cc23)n1 [Example 5, 3-((4-methylpyrimidin-2-yl)methoxy)-5-(4-(trifluoromethoxy)phenyl)benzo[d]isoxazole]
- inhibition at 3 µM [1, 3]: 18%
- inhibition at 3 µM [1, 4]: < 5%
- inhibition at 10 µM [2]: < 5%

Structure (SMILES): FC(F)(F)Oc1ccc(-c2ccc3onc(OCc4ncco4)c3c2)cc1 [Example 53, 3-(oxazol-2-ylmethoxy)-5-(4-(trifluoromethoxy)phenyl)benzo[d]isoxazole]
- inhibition at 3 µM [1, 3]: 43.4%
- inhibition at 3 µM [1, 4]: < 5%
- inhibition at 10 µM [2]: < 5%

Structure (SMILES): FC(F)(F)Oc1ccc(-c2ccc3onc(OCCNc4ncccn4)c3c2)cc1 [Example 123, N-(2-((5-(4-(trifluoromethoxy)phenyl)benzo[d]isoxazol-3-yl)oxy)ethyl)pyrimidin-2-amine]
- inhibition at 3 µM [1, 3]: 27.3%
- inhibition at 3 µM [1, 4]: < 5%
- inhibition at 10 µM [2]: < 5%

Structure (SMILES): FC(F)(F)Oc1ccc(-c2ccc3onc(OCCn4cncn4)c3c2)cc1 [Example 58, 3-(2-(1H-1,2,4-triazol-1-yl)ethoxy)-5-(4-(trifluoromethoxy)phenyl)benzo[d]isoxazole]
- inhibition at 3 µM [1, 3]: 22.2%
- inhibition at 3 µM [1, 4]: < 5%
- inhibition at 10 µM [2]: 43.5%

Structure (SMILES): COc1cc2onc(OCc3ncccn3)c2cc1-c1ccc(F)c(Cl)c1 [Example 15, 5-(3-chloro-4-fluorophenyl)-6-methoxy-3-(pyrimidin-2-ylmethoxy)benzo[d]isoxazole]
- inhibition at 3 µM [1, 3]: 14.3%
- inhibition at 3 µM [1, 4]: < 5%
- inhibition at 10 µM [2]: < 5%

Structure (SMILES): COc1ccnc(COc2noc3ccc(-c4ccc(OC(F)(F)F)cc4)cc23)n1 [Example 67, 3-((4-methoxypyrimidin-2-yl)methoxy)-5-(4-(trifluoromethoxy)phenyl)benzo[d]isoxazole]
- inhibition at 3 µM [1, 3]: 48.7%
- inhibition at 3 µM [1, 4]: < 5%
- inhibition at 10 µM [2]: 5.26%

Structure (SMILES): CC(=O)N1CCC[C@H]1COc1noc2ccc(-c3ccc(OC(F)(F)F)cc3)cc12 [Example 109, (S)-1-(2-(((5-(4-(trifluoromethoxy)phenyl)benzo[d]isoxazol-3-yl)oxy)methyl)pyrrolidin-1-yl)ethan-1-one]
- inhibition at 3 µM [1, 3]: 14.5%
- inhibition at 3 µM [1, 4]: < 5%
- inhibition at 10 µM [2]: 57%

Structure (SMILES): FC(F)(F)Oc1ccc(-c2ccc3onc(-n4ccnc4)c3c2)cc1 [Example 132, 3-(1H-imidazol-1-yl)-5-(4-(trifluoromethoxy)phenyl)benzo[d]isoxazole]
- inhibition at 3 µM [1, 3]: 20.6%
- inhibition at 3 µM [1, 4]: 5.1%
- inhibition at 10 µM [2]: < 5%

Structure (SMILES): FC(F)(F)Oc1ccc(-c2ccc3onc(-n4cnc(C(F)(F)F)c4)c3c2)cc1 [Example 145, 5-(4-(trifluoromethoxy)phenyl)-3-(4-(trifluoromethyl)-1H-imidazol-1-yl)benzo[d]isoxazole]
- inhibition at 3 µM [1, 3]: 93%
- inhibition at 3 µM [1, 4]: < 5%
- inhibition at 10 µM [2]: 81.4%

Structure (SMILES): FC(F)(F)Oc1ccc(-c2ccc3onc(Oc4ncccn4)c3c2)cc1 [Example 124, 3-(pyrimidin-2-yloxy)-5-(4-(trifluoromethoxy)phenyl)benzo[d]isoxazole]
- inhibition at 3 µM [1, 3]: 49.9%
- inhibition at 3 µM [1, 4]: < 5%
- inhibition at 10 µM [2]: 35%

Structure (SMILES): C[C@@H](N)COc1noc2ccc(-c3ccc(OC(F)(F)F)cc3)cc12 [Example 117, (R)-1-((5-(4-(trifluoromethoxy)phenyl)benzo[d]isoxazol-3-yl)oxy)propan-2-amine]
- inhibition at 3 µM [1, 3]: 79.3%
- inhibition at 3 µM [1, 4]: 60.8%
- inhibition at 10 µM [2]: 80.9%

Structure (SMILES): O=C1CCCN1CCOc1noc2ccc(-c3ccc(OC(F)(F)F)cc3)cc12 [Example 59, 1-(2-((5-(4-(trifluoromethoxy)phenyl)benzo[d]isoxazol-3-yl)oxy)ethyl)pyrrolidin-2-one]
- inhibition at 3 µM [1, 3]: 19%
- inhibition at 3 µM [1, 4]: < 5%
- inhibition at 10 µM [2]: 46.9%

Structure (SMILES): FC(F)(F)Oc1ccc(-c2ccc3onc(OCC4CCO4)c3c2)cc1 (stereo not shown) [Example 42, 3-(oxetan-2-ylmethoxy)-5-(4-(trifluoromethoxy)phenyl)benzo[d]isoxazole]
- inhibition at 3 µM [1, 3]: 27.6%
- inhibition at 3 µM [1, 4]: < 5%
- inhibition at 10 µM [2]: < 5%

Structure (SMILES): Cc1nccnc1COc1noc2ccc(-c3ccc(OC(F)(F)F)cc3)cc12 [Example 152, 3-((3-methylpyrazin-2-yl)methoxy)-5-(4-(trifluoromethoxy)phenyl)benzo[d]isoxazole]
- inhibition at 3 µM [1, 3]: 30.6%
- inhibition at 3 µM [1, 4]: < 5%
- inhibition at 10 µM [2]: 11.4%

Structure (SMILES): N#CCOc1noc2ccc(-c3ccc(OC(F)(F)F)cc3)cc12 [Example 103, 2-((5-(4-(trifluoromethoxy)phenyl)benzo[d]isoxazol-3-yl)oxy)acetonitrile]
- inhibition at 3 µM [1, 3]: 18.8%
- inhibition at 3 µM [1, 4]: < 5%
- inhibition at 10 µM [2]: 8.5%

Structure (SMILES): FC(F)(F)Oc1ccc(-c2ccc3onc(OCc4cnccn4)c3c2)cc1 [Example 151, 3-(pyrazin-2-ylmethoxy)-5-(4-(trifluoromethoxy)phenyl)benzo[d]isoxazole]
- inhibition at 3 µM [1, 3]: 43.3%
- inhibition at 3 µM [1, 4]: < 5%
- inhibition at 10 µM [2]: 20%

Structure (SMILES): Fc1cc(-c2ccc3onc(OCc4ncccn4)c3c2)ccc1Cl [Example 8, 5-(4-chloro-3-fluorophenyl)-3-(pyrimidin-2-ylmethoxy)benzo[d]isoxazole]
- inhibition at 3 µM [1, 3]: 13.1%
- inhibition at 3 µM [1, 4]: < 5%
- inhibition at 10 µM [2]: < 5%

Structure (SMILES): FC(F)(F)Oc1ccc(-c2ccc3onc(OCc4ncccn4)c3c2)cc1 [Example 1, 3-(pyrimidin-2-ylmethoxy)-5-(4-(trifluoromethoxy)phenyl)benzo[d]isoxazole]
- inhibition at 10 µM [2]: 5.5%
